Experimental data: patent US20230219912A1, “HALOGENATED BENZOTHIADIAZINES FOR THE TREATMENT OF CANCER” (BOARD OF REGENTS OF THE UNIVERSITY OF NEBRASKA, priority 2020, published 2023)
“Also recorded” adds a separate entry of the source. Read-outs that look alike come from different tables or passages of the source.

How the values were obtained:
[1] = system: VEGF-induced proliferation of HUVEC cells; test: VEGF-induced HUVEC proliferation, MTT assay; assay type: cell-based, human; settings: for inhibition of VEGF-induced HUVEC proliferation (in words): 20 μM; for inhibition at 20 µM: Homo sapiens, HUVEC, 48 h, read-out: % Inhibition of Proliferation
Outline: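 HUVECs starved 24 h in 0.1% BSA/0.1% FBS basal medium, then treated 48 h with VEGF (10 ng/mL) alone or with compounds at 20 μM (DMSO <1%). Proliferation by MTT (2 h, 37° C), formazan dissolved in acidified isopropanol, absorbance at 570 nm.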

[2] = system: phosphorylated vascular endothelial growth factor receptor-2 (VEGFR2); test: Western blot of pVEGFR2 in VEGF-treated HUVEC cells; assay type: cell-based, human; settings: 20 μM, VEGF 10 ng/mL, 5 min
Protocol: Cells were treated with test compounds (20 μM) along with VEGF (10 ng/mL) for 5 min. The DMSO was used as a negative control, whereas DMSO+VEGF was used as a positive control. Cells were lysed using RIPA buffer (10 mmol/L Tris-HCl, 1 mmol/L EDTA, 0.5 mmol/L EGTA, 1% Triton X-100, 0.1% sodium deoxycholate, 0.1% SDS and 140 mmol/L NaCl), supplemented with protease and phosphatase inhibitors (Halt Protease and Phosphatase Inhibitor). Cell lysates were centrifuged, and the supernatants were mixed with appropriate amount of 5×SDS loading buffer. Proteins were resolved on polyacrylamide gel and transferred onto nitrocellulose/PVDF membrane, blocked for 1 hour with 10% milk block prepared in 0.1% Tween 20 in 1×PBS (PBST), and treated with pVEGFR2 primary antibody at 4° C. overnight. The membrane was washed thrice with PBST, 5 minutes each, and treated with secondary antibody for 1 hour. The membrane was further washed three times, 5 minutes each, with PBST and developed using chemiluminescence, and the bands were analyzed using densitometry.

[3] = molecular target: T1, Mitochondrial respiratory complex II (Rattus norvegicus, UniProt P21913+Q641Z9+Q6PCT8+Q920L2); test: Mitochondrial respiratory complex II inhibition assay; assay type: biochemical; settings: 100 μM, relative to DMSO control; read-out: inhibition of CII
T1 construct: measured spectrophotometrically using isolated rat heart mitochondria; from tissue; host or cells: rat heart mitochondria / sub-mitochondrial particles
T1 sequence (Q920L2 35-656): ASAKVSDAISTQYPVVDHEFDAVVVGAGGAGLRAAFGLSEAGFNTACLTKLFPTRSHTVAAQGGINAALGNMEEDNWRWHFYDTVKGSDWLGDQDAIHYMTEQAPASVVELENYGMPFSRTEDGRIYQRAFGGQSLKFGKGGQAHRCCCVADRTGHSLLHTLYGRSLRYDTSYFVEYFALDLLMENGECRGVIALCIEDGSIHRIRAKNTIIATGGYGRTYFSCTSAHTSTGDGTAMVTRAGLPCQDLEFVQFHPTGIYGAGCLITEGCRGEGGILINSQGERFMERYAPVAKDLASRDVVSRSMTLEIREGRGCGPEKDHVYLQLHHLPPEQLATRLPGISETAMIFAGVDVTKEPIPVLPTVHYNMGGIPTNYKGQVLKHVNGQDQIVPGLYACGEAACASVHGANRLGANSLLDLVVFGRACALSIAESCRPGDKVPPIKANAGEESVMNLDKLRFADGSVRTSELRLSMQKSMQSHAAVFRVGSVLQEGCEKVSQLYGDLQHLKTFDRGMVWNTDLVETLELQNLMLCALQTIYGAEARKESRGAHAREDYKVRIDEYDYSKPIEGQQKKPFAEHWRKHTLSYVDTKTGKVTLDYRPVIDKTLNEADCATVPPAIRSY
T1 sequence (P21913 31-282): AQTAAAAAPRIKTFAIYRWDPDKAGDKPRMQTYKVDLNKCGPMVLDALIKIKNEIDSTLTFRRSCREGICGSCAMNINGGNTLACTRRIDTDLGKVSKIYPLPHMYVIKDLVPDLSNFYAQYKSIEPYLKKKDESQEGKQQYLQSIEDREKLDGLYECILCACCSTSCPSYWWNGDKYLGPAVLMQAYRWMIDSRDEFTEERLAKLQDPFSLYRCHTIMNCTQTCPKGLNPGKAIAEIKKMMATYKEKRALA
T1 sequence (Q641Z9 1-169): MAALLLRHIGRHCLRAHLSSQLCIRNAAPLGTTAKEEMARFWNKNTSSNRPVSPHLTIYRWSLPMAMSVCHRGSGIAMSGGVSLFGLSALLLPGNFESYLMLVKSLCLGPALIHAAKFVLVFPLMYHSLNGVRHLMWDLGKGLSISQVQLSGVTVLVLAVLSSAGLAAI
T1 sequence (Q6PCT8 57-159): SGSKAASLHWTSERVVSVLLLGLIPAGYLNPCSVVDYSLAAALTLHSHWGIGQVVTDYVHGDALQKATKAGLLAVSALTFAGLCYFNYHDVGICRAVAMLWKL
Outline: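 Rat heart mitochondria or sub-mitochondrial particles in phosphate buffer pH 7.4 with 40 μM DCPIP, 1 mM KCN, 10 μM rotenone and 50 μM co-enzyme Q2.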

[4] = system: 22Rv1 prostate cancer cells; test: MTS cytotoxicity assay in 22Rv1 prostate cancer cells; settings: Homo sapiens, 22Rv1, 48 h, read-out: reduction of 22Rv1 cell viability
Outline: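 Cells seeded at 1×10^5 per well and dosed after 24 h at the indicated concentrations (final DMSO <1%), then incubated 48-72 hours at 37° C, 5% CO2. MTS added for 2-4 hr; absorbance at 490 nm, viability expressed as percentage of controls.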

[5] = system: human embryonic kidney (HEK293) cells; test: MTS cytotoxicity assay in HEK293 cells; assay type: cell-based; settings: 72 hours, mean ± SD n = 3
Protocol: The assay was performed as follows. To determine the cell growth inhibition ability of the synthesized compounds the (3-(4,5-dimethylthiazol-2-yl)-5-(3-carboxymethoxyphenyl)-2-(4-sulfophenyl)-2H-tetrazolium) (MTS) assay used according to the manufacturer's recommended protocol. Stock solutions of the synthesized compounds were prepared in DMSO. Cells were seeded at a density of 1×10^5 cells in 96-well plates. After 24 hours, cells were treated at the indicated concentrations of test compounds, limiting the final DMSO concentration to less than 1%. After incubation at 37° C. in an environment of 5% CO2 for 48-72 hours, 10 μL of MTS reagent (CellTiter 96© AQueous One Solution Reagent) was added to each well and incubated at the above mentioned conditions for 2-4 hr. Absorbance was recorded at 490 nm on a BioTek Synergy Mx multimode plate reader and the viability of cells were plotted as percentage of controls.
Cytotoxicity was also evaluated by using the low tumorigenic HEK293 cells at 50 μM concentration.

[6] = system: MDA-MB-468 triple negative breast cancer cells; test: MTS cytotoxicity assay in MDA-MB-468 triple negative breast cancer cells; assay type: cell-based; settings: Homo sapiens, MDA-MB-468; 72 hours; mean ± SD n = 3
Protocol: The assay was performed as follows.
Derivatives were dosed at 10, 50 and 100 μM for 24, 48 and 72 hours and cell viability measured by MTS assay (FIG. 5).

[7] = 20 μM compound, VEGF 10 ng/mL, relative to VEGF treated cells, mean ± SEM n = 3

inhibition at 100 µM [3]	SMILES	inhibition of VEGF-induced HUVEC proliferation (in words) ([1]; VEGF 10 ng/mL)	inhibition at 20 µM [1]	attenuation of pVEGFR2 expression [2]	cytotoxicity at 100 µM [4]	inhibition at 20 µM [1, 7]	IC50 [5]	IC50 [6]
–	COc1cccc(CNC2=NS(=O)(=O)c3cc(Cl)ccc3N2)c1 [Compound 62e, 7-Chloro-3-((3-methoxybenzyl)amino)-4H-benzo[e][1,2,4]thiadiazine 1,1-dioxide]	suppressed HUVEC proliferation; also recorded: enhanced activity	96 ± 16%	outperformed the parent compound; also recorded: most potent	–	–	–	–
21%	O=S1(=O)N=C(NCc2ccc(OC(F)(F)F)cc2)Nc2ccc(Br)cc21 [Compound 30c, 7-bromo-3-((4-(trifluoromethoxy)benzyl)amino)-4H-benzo[e][1,2,4]thiadiazine 1,1-dioxide]	–	–	outperformed the parent compound	45%	–	–	–
–	CC(NC1=NS(=O)(=O)c2ccccc2N1)c1ccccc1 (stereo not shown) [Compound 24d, 3-((1-phenylethyl)amino)-4H-benzo[e][1,2,4]thiadiazine 1,1-dioxide]	–	–	outperformed the parent compound; also recorded: most potent	~30%	–	–	–
–	Cc1cccc(CNC2=NS(=O)(=O)c3cc(Cl)ccc3N2)c1 [Compound 58e, 7-Chloro-3-((3-methylbenzyl)amino)-4H-benzo[e][1,2,4]thiadiazine1,1-dioxide]	suppressed HUVEC proliferation; also recorded: enhanced activity	145 ± 6%	outperformed the parent compound	–	–	–	–
–	O=S1(=O)N=C(NC2CCCC2)Nc2ccc(Cl)cc21 [Compound 59e, 7-Chloro-3-(cyclopentylamino)-4H-benzo[e][1,2,4]thiadiazine 1,1-dioxide]	suppressed HUVEC proliferation; also recorded: enhanced activity	–	outperformed the parent compound; also recorded: most potent	–	133 ± 6%	–	–
–	O=S1(=O)N=C(NCc2ccc(OC(F)(F)F)cc2)Nc2cc(Cl)ccc21 [Compound 30b, 6-chloro-3-((4-(trifluoromethoxy)benzyl)amino)-4H-benzo[e][1,2,4]thiadiazine 1,1-dioxide]	suppressed HUVEC proliferation; also recorded: enhanced activity	–	outperformed the parent compound; also recorded: most potent	–	196 ± 11%	77.2 µM	48 µM
